Assay results taken from US9663429B2, “Vitamin D analogues of pharmaceutical interest” (UNIVERSIDADE DE SANTIAGO DE COMPOSTELA, priority 2013, dated 2017).
“Also recorded” adds a separate entry of the source.

Columns and labels:
[1] = Calcaemic effects in mice at 0.3 μg/kg; assay type: in vivo; settings: for Calcaemic activity: blood calcium in percentage over that induced by 1,25D: ip every two days for 21 days, 0.3 μg/kg (table title prints 0.3 mg/kg); for Hypercalcemia (serum calcium versus control): 0.3 μg/Kg ip every 2 days for 21 days
Description: FIG. 8. […] 1,25D and the various analogues were injected intraperitoneally every 2 days for 21 days at a dose of 0.3 μg/Kg. After treatment the calcium levels in the serum were evaluated and the values were represented as mean±SD in […].
(§1) Calcium mobilization of analogues was determined in 28 male CD-1 mice (6-8 weeks old). 6 Groups of 4 mice each were established, which mice were intraperitoneally (ip) injected with 0.3 μg/kg weight of each analogue or 1,25D dissolved in sesame oil every two days for 3 weeks. A seventh group of 4 mice treated with the carrier (sesame oil) served as controls. Calcium levels in blood were determined by QuantiChomCalciumAssay Kit (BioAssaySystems, Hayward, Calif., USA). In addition, a dose-response assay was performed to assess the effect of administration of the analogues PG-403 and PG136p and hormone (1,25D) at different doses on calcium levels. This assay was performed in male mice (5 mice per group), and the doses used were: 0.1, 0.5, 1, and 5 μg/kg weight of each analogue or 1,25D, i.p. administered every two days for 21 days. In addition, a control group (mice treated with sesame oil) was used.

[2] = Body weight of mice in the dose-response assay; assay type: in vivo
Description: FIG. 10. […] 1,25D (dose of 0.3 μg/kg) and analogues (doses of 0.1, 0.5, 1 and 5 μg/kg) were injected intraperitoneally every 2 days for 21 days. Animals were weighed every two days during treatment. The values were represented as mean±SD in […].
In this experiment, also the weight of the animals was quantified to determine whether there was any modification throughout the treatment.

[3] = Dose-response assay of serum calcium in mice; assay type: in vivo
Description: FIG. 9. […] 1,25D (dose of 0.3 μg/kg) and analogues (doses of 0.1, 0.5, 1 and 5 μg/kg) were injected intraperitoneally every 2 days for 21 days. After treatment the calcium levels in the serum were evaluated and the values were represented as mean±SD in […].
as §1

[4] = system: MCF-7 cells; assay: MTT proliferation assay, MCF-7; settings: 10^−7 M, 48 hours, 100% control cells
Description: Proliferation assay in the MCF-7 cell line of human breast adenocarcinoma. […] The values were plotted in the graphs as mean±SD. As proliferation value, 100% was considered the normal growth of MCF-7 cells treated with the carrier in the control.
(§2) The cells were cultured in 90-mm plates in essential culture medium DMEM, supplemented with 10% bovine foetal serum free of steroid hormones, 100 U/ml penicillin, 100 μg/ml streptomycin and 2 mM non-essential amino acids (L-glutamine) at 37° C. in a humid atmosphere O2/CO2 (95/5%).
Cell proliferation/toxicity in breast cancer lines was assessed by both incorporation assays of 3-(4,5-dimethylthiazol-2-yl)-2,5-difeniltetrazolium (MTT) bromide and cell culture in three dimensions (3D).
(§3) The first is an indirect method for determining living cells, wherein the yellow water soluble MTT is reduced in mitochondria, thus generating a purple insoluble product (formazan). […] After this time, the culture medium was removed and 500 μl of dimethylsulfoxide (DMSO) was added to each well to solubilise the formazan incorporated by the cells.

[5] = target: T1, vitamin D receptor (VDR) (Homo sapiens, UniProt P11473); assay: Competitive binding to vitamin D receptor (Polarscreen VDR competitor assay, fluorescence polarisation); settings: for Binding to VDR % relative to 1,25D (100%): activity relative to natural hormone 1,25D normalised at 100%; for IC50: competitive displacement, 10^−11 to 10^−5 M
T1 construct: purchased Invitrogen
T1 sequence (P11473 1-427): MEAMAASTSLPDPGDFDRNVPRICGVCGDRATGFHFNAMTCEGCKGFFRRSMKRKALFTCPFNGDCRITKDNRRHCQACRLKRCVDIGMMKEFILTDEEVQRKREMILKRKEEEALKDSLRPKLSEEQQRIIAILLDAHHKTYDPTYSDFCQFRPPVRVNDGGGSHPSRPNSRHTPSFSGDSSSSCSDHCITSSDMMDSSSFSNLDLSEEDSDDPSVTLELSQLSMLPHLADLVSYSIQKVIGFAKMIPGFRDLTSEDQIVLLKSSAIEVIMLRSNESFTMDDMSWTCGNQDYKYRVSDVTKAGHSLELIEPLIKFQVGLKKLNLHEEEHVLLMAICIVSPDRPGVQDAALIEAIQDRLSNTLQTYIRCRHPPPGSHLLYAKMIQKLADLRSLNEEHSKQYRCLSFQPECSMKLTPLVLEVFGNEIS
Description: FIG. 1. […] The values represent the mean of at least two experiments.
Polarised fluorescence was determined in 384-well black plates for 200 ms/well using a Mithras LB 940 device (Berthold Technologies).

[6] = system: SKOV-3 cells; assay: MTT proliferation assay, SKOV-3; settings: 10^−7 M, 48 hours, 100% control cells
Description: Proliferation assay in the SKOV-3 cell line of human ovary adenocarcinoma. […] The values were plotted in the graphs as mean±SD. As proliferation value, 100% was considered the normal growth of SKOV-3 cells treated with the carrier in the control.
as §2, §3

[7] = system: 24-hydroxylase promoter, CYP24A1 (pCYP24A1-Luc); assay: Transactivation reporter assay (pCYP24A1-Luc) in MCF-7 cells; settings: for EC50: Homo sapiens, MCF7, 24 h, read-out: Transcriptional activity EC50; for Transcriptional activity % relative to 1,25D (100%): MCF-7 cells, pCYP24A1-Luc
Description: MCF-7 cells were transfected with the reporter vector of 24-hydroxylase (pCYP24A1-Luc vector) for 24 hours. […] The experiments were performed at least twice. The error bars represent the standard deviation (SD).

[8] = system: PC-3 cells; assay: MTT proliferation assay, PC-3; settings: 10^−7 M, 48 hours, 100% control cells
Description: Proliferation assay in the PC-3 cell line of human prostate adenocarcinoma. […] The values were plotted in the graphs as mean±SD. As proliferation value, 100% was considered the normal growth of PC-3 cells treated with the carrier in the control.
as §2, §3

[9] = system: HaCaT cells; assay: MTT proliferation assay, HaCaT; settings: 10^−7 M, 48 hours, 100% control cells
Description: Proliferation assay in the HaCaT cell line of human keratinocytes. […] The values were plotted in the graphs as mean±SD. As proliferation value, 100% was considered the normal growth of HaCaT cells treated with the carrier in the control.
as §2, §3

[10] = system: MCF-7 cells; assay: 3D cell culture on matrigel (spheroid size), MCF-7; assay type: cell-based, human; settings: for Cell proliferation percentage MCF-7 3D: 10^−7 M, matrigel spheroids, 100% control cells
Description: FIG. 7. MCF-7 cells were shown for 10 days on a matrigel bed until they formed a 3D cellular structure. […] After treatment, the spheroids were stained with DAPI (4′,6-diamino-2-phenylindole) for 1 hour and photographed under an inverted microscope with ultraviolet light. The size of these spheroids was measured and the values were represented as mean±SD in relative units. […] Those cells treated with the carrier were considered as the control value.
For 3D cell culture, a cushion of 200 μl of Matrigel (BD Biosciences) was used in each of the wells of multi-well plates of 24 wells. They were incubated at 37° C. for 20 minutes for their solidification and subsequently the cell suspension (5×10^3 cells per 100 μl volume of medium) was loaded onto the matrigel solidified and another incubation at 37° C. was performed for 30 minutes so that the cells penetrated properly on the matrigel base. 500 μl of DMEM medium were added to each well, and the cells were maintained in culture for 10 days. At the end of this time, the cells were started to be treated with each of the 5 analogues used and 1,25D.

Row | Structure (SMILES) | Calcaemic activity: blood calcium in percentage over that induced by 1,25D [1] [%] | Hypercalcemia (serum calcium versus control) [1] | Binding to VDR % relative to 1,25D (100%) [5] [%] | IC50 [5] [nM] | EC50 [7] [nM] | Blood calcium ([1]; 0.3 μg/kg ip every two days for 3 weeks, carrier 11.9±0.7) [mg/dL] | Body weight, 1,25D ([2]; mice, 0.5 μg/kg weight ip every two days for 21 days) | Serum calcium versus controls, 1,25D ([3]; 0.5 μg/kg weight ip every two days for 21 days) | Cell proliferation percentage MCF-7 2D [4] [%] | Cell proliferation percentage SKOV-3 2D [6] [%] | Transcriptional activity % relative to 1,25D (100%) [7] [%] | Cell proliferation percentage PC-3 2D [8] [%] | Cell proliferation percentage HaCaT 2D [9] [%] | Cell proliferation percentage MCF-7 3D [10] [%] | Body weight versus control animals, analogues ([2]; mice, 0.1, 0.5, 1 and 5 μg/kg ip every 2 days for 21 days) | Serum calcium versus control animals (placebo) ([3]; 5 μg/kg weight ip every two days for 21 days) | Serum calcium versus controls, analogues ([3]; doses 0.1, 0.5, 1 and 5 μg/kg ip every 2 days for 21 days) | Three-dimensional growth of MCF-7 spheroids (in words) ([10]; 10^−7 M for 7 days)
1 | C=C1/C(=C\C=C2/CCC[C@]3(C)[C@@H]([C@H](C)CCCC(C)(C)O)CC[C@@H]23)C[C@@H](O)C[C@@H]1O [1,25D, 1,25-dihydroxyvitamin D3, reference compound] | 100 | – | – | – | – | 14.7 ± 0.58 | produced a significant decrease in the weight of the animals | induces a significant increase in serum calcium | – | – | – | – | – | – | – | – | – | –
2 | C=C1/C(=C\C=C(/CCCC)c2cccc(CCCCCC(C)(C)O)c2)C[C@@H](O)C[C@@H]1O [PG-128, (1R,3S,Z)-5-((E)-3-(3-(6-hydroxy-6-methylheptyl)phenyl)hept-2-enyliden)-4-methylenecyclohexane-1,3-diol] | 34 | does not produce hypercalcemia | 12 | 13.6 | 10 | – | – | – | 74 | 81 | 20 | 84 | 71 | 84 | – | – | – | –
3 | C=C1/C(=C\C=C(/CCC)c2cccc(CCCCCC(C)(C)O)c2)C[C@@H](O)C[C@@H]1O [PG-152, (1R,3S,Z)-5-((E)-3-(3-(6-hydroxy-6-methylheptyl)phenyl)hex-2-enyliden)-4-methylenecyclohexane-1,3-diol] | 41 | does not produce hypercalcemia | 10 | 17.6 | 9.27 | – | – | – | 69 | 82 | 21 | 83 | 71 | 74 | – | – | – | –
4 | C=C1/C(=C\C=C(/CCCCCC)c2cccc(CCCCCC(C)(C)O)c2)C[C@@H](O)C[C@@H]1O [PG-156, (1R,3S,Z)-5-((E)-3-(3-(6-hydroxy-6-methylheptyl)phenyl)non-2-enyliden)-4-methylenecyclohexane-1,3-diol] | 0 | does not produce hypercalcemia | 9 | 18.4 | 11.4 | – | – | – | 78 | 76 | 17 | 80 | 74 | 79 | – | – | – | –
5 | C=C1/C(=C\C=C(/CCCCCC(C)(C)O)c2cccc(CCCCCC(C)(C)O)c2)C[C@@H](O)C[C@@H]1O [PG-385, (1R,3S,Z)-5-((E)-9-hydroxy-3-(3-(6-hydroxy-6-methylheptyl)phenyl)-9-methyldec-2-enyliden)-4-methylenecyclohexane-1,3-diol] | 9 | does not produce hypercalcemia | – | – | 5.6 | – | – | – | 69 | – | 35 | – | – | – | – | – | – | –

Continued, in another order:

Row | Calcaemic activity: blood calcium in percentage over that induced by 1,25D [1] [%] | Hypercalcemia (serum calcium versus control) [1] | Binding to VDR % relative to 1,25D (100%) [5] [%] | IC50 [5] [nM] | EC50 [7] [nM] | Structure (SMILES) | Blood calcium ([1]; 0.3 μg/kg ip every two days for 3 weeks, carrier 11.9±0.7) [mg/dL] | Body weight, 1,25D ([2]; mice, 0.5 μg/kg weight ip every two days for 21 days) | Serum calcium versus controls, 1,25D ([3]; 0.5 μg/kg weight ip every two days for 21 days) | Cell proliferation percentage MCF-7 2D [4] [%] | Cell proliferation percentage SKOV-3 2D [6] [%] | Transcriptional activity % relative to 1,25D (100%) [7] [%] | Cell proliferation percentage PC-3 2D [8] [%] | Cell proliferation percentage HaCaT 2D [9] [%] | Cell proliferation percentage MCF-7 3D [10] [%] | Body weight versus control animals, analogues ([2]; mice, 0.1, 0.5, 1 and 5 μg/kg ip every 2 days for 21 days) | Serum calcium versus control animals (placebo) ([3]; 5 μg/kg weight ip every two days for 21 days) | Serum calcium versus controls, analogues ([3]; doses 0.1, 0.5, 1 and 5 μg/kg ip every 2 days for 21 days) | Three-dimensional growth of MCF-7 spheroids (in words) ([10]; 10^−7 M for 7 days)
6 | 0 | does not produce hypercalcemia | 7 | 23.5 | 34.6 | C=C1/C(=C\C=C(/CCCCCCC)c2cccc(CCCCCC(C)(C)O)c2)C[C@@H](O)C[C@@H]1O [PG-403, (1R,3S,Z)-5-((E)-3-(3-(6-hydroxy-6-methylheptyl)phenyl)dec-2-enyliden)-4-methylenecyclohexane-1,3-diol] | – | – | – | 69 | 83 | 6 | 79 | 71 | 55 | does not change the body weight; also recorded: did not significantly affect the body weight | did not significantly raise serum calcium | does not produce hypercalcemia; also recorded: None of the two analogues tested (PG136p and PG-403) induces increased serum calcium | inhibit the three-dimensional growth, similarly to 1,25D
7 | 8 | does not produce hypercalcemia | – | – | 2.95 | C=C1/C(=C\C=C\c2cc(CCCCCC(C)(C)O)cc(CCCCCC(C)(C)O)c2)C[C@@H](O)C[C@@H]1O [PG-433, (1R,3S,Z)-5-((E)-3-(3.5-(6-hydroxy-6-methylheptyl)phenyl)allyliden)-4-methylenecyclohexane-1,3-diol] | – | – | – | 69 | – | 67 | – | – | – | – | – | – | –
